Experiments:
[1] = test system: Tyromyces palustris; assay: Wood weight reduction after weather resistance operation, test method of Japan Wood Preservation Association, Tyromyces palustris/Japanese cedar (Test Example 3); conditions: oil formulation, Japanese cedar, 30 weather resistance cycles, 8 weeks
Experimental: (§1) An oil formulation of each of the test compounds shown in Table 5 was prepared according to Formulation Example 1 and was tested based on the test method of Japan Wood Preservation Association. The summary of the test method is as follows:
(§2) The cut end surfaces of a wooden piece of Japanese beech or Japanese cedar (thickness: 5 mm, width: 20 mm, length: 40 mm; the surface of 40×20 mm is of straight grain) were sealed with an epoxy resin and the wooden piece was impregnated with the oil formulation (110±10 g/m^2 surface area), and thereafter air-dried for 20 days to prepare a test specimen. The test specimen was dipped in still water [water:wooden piece=10:1 (volume ratio)] at 25°±3° C. for 5 hours, and then the water was volatilized at 40±2° C. for 19 hours. This weather resistance operation was repeated 30 times. The test specimen after the weather resistance operation was dried at 60°±2° C. for 48 hours and then placed in a desicator for about 30 minutes, after which the weight (W3) of the test specimen was measured. The test described above was repeated for 9 wooden pieces. The test specimen was sterilized and then, placed in a culture vial in which wood rotting fungi (Coriolus versicolor/Japanese beech, Tyromyces palustris/Japanese cedar) were being cultured, in which cultivation was effected at 26°±2° C. at a humidity of 80% for 8 weeks. After 8 weeks, the test specimen was taken out of the culture vial and the mycelium and other extraneous matters were removed therefrom, after which the test specimen was dried at 60°±2° C. for 48 hours and placed in a desicator for about 30 minutes. Thereafter, the weight (W4) of the test specimen was measured. The weight reduction percentage was calculated according to the following equation: [formula]

[2] = Discoloration (coloration) of oil formulation-coated filter paper under irradiation with light (Test Example 1); format: physicochemical; parameters: key: -: No discoloration (coloration); +: Slight discoloration (coloration); ++: Prominent discoloration (coloration); conditions: 1% oil formulation, 100 ml per m^2 of filter paper, light of 6000-7000 lux for 5 minutes
Experimental: A 1% oil formulation of each of the test compounds shown in Table 2 was prepared according to Formulation Example 1. The oil formulation was coated on a filter paper having a diameter of 5.5 cm in an amount of 100 ml of the oil formulation per m^2 of the filter paper and the filter paper was air-dried. The filter paper thus prepared was subjected to irradiation with light of 6000-7000 lux for 5 minutes and then, taken out, after which the degree of discoloration (coloration) was observed. The degree of discoloration (coloration) was determined based on the following standard.
No discoloration (coloration): -
Slight discoloration (coloration): +
Prominent discoloration (coloration): ++

[3] = test system: Tyromyces palustris; assay: Mycelium growth inhibition on potato dextrose agar medium, Tyromyces palustris (Test Example 2); format: cell-based; conditions: four days after inoculation
Experimental: (§3) Each of the test compounds shown in Tables 3 and 4 was dissolved in a definite amount of dimethylsulfoxide to prepare a 1% W/V solution. A definite amount of the resulting formulation was added to a potato dextrose agar medium just after sterilization (using a moist heat sterilizer) and about 20 cc of the mixture was poured into a Petri dish of 9 cm in diameter and the Petri dish was placed at room temperature. After the medium was solidified, mycelium from a colony of Coriolus versicolor or Tyromyces palustris cultured previously was punched with a cork borer of 5 mm in diameter and the mycelium was inoculated at the center of the test medium. Four days after the inoculation, the diameter of colony extended from the inoculation point was measured and the percentage of mycelium growth inhibition was calculated according to the following equation: [formula]

[4] = test system: Coriolus versicolor; assay: Mycelium growth inhibition on potato dextrose agar medium, Coriolus versicolor (Test Example 2); format: cell-based; conditions: four days after inoculation
Experimental: as §3

[5] = test system: Coriolus versicolor; assay: Wood weight reduction after weather resistance operation, test method of Japan Wood Preservation Association, Coriolus versicolor/Japanese beech (Test Example 3); conditions: oil formulation, Japanese beech, 30 weather resistance cycles, 8 weeks
Experimental: as §1, §2

Row | Compound | Average weight reduction percentage ([1]; concentration 1.0%) | Degree of discoloration (coloration) [2] | Percentage of growth inhibition for Tyromyces palustris ([3]; 1 ppm) | Percentage of growth inhibition for Tyromyces palustris ([3]; 2 ppm) | Percentage of growth inhibition for Tyromyces palustris ([3]; 4 ppm) | Percentage of growth inhibition for Coriolus versicolor ([4]; 1 ppm) | Percentage of growth inhibition for Coriolus versicolor ([4]; 2 ppm) | Percentage of growth inhibition for Coriolus versicolor ([4]; 4 ppm) | Average weight reduction percentage ([5]; concentration 1.0%) | Average weight reduction percentage ([1]; concentration 0.5%) | Average weight reduction percentage ([5]; concentration 0.5%)
1 | 3-Iodo-2-propenylbutyl carbamate [Compound (B)] | 0.78% | + | 80.5 Percentage | 88.7 Percentage | 100 Percentage | 81.3 Percentage | 91.9 Percentage | 100 Percentage | 7.6% |  | 
2 | CC(C)(C)C(O)/C(=C\c1ccc(Cl)cc1Cl)n1cncn1 (single isomer, unassigned; (-)) [Compound (1), (-)-(E)-1-(2,4-dichlorophenyl)-4,4-dimethyl-2-(1,2,4-triazol-1-yl)-1-penten-3-ol] | 0.19% | - | 79.1 Percentage | 93.0 Percentage | 95.6 Percentage | 86.1 Percentage | 93.9 Percentage | 98.3 Percentage | 0.64% | 0.25% | 0.70%
3 | CC(C)(C)C(O)/C(=C\c1ccc(Cl)cc1)n1cncn1 (single isomer, unassigned; (-)) [Compound (2), (-)-(E)-1-(4-chlorophenyl)-4,4-dimethyl-2-(1,2,4-triazol-1-yl)-1-penten-3-ol] |  | - | 94.6 Percentage | 98.8 Percentage | 100 Percentage | 85.3 Percentage | 87.2 Percentage | 93.9 Percentage |  |  | 
4 | CCOC(=O)OCC(I)=C(Br)I [Compound (A), 3-Bromo-2,3-diiodo-2-propenylethyl carbonate] | 3.1% |  | 26.6 Percentage | 43.0 Percentage | 63.3 Percentage | 20.0 Percentage | 41.7 Percentage | 72.8 Percentage | 3.9% |  | 
5 | Clc1ccc(OCOCC#CI)cc1 [Compound (C), 4-Chlorophenyl-3-iodopropargyl formal] | 0.34% | ++ | 77.0 Percentage | 98.6 Percentage | 100 Percentage | 68.2 Percentage | 88.7 Percentage | 97.9 Percentage | 1.1% |  | 

— patent US5332427A, “Wood preservatives” (priority 1991, dated 1994)
